{"source": "patent US20240400991A1", "about": "“IMMUNE CELLS WITH REDUCED ANDROGEN RECEPTOR (AR) LEVEL, AND METHODS OF THEIR USE TO ENHANCE ANTI-CANCER THERAPY” (Oregon Health & Science University, priority 2021, published 2024)", "key": {"OTI T cells in the tumor": {"system": "OTI T cells in the tumor", "test": "Adoptive T cell therapy model: OT1 CD8 T cells in MCA-OVA tumor bearing RIP-mOVA animals"}, "[1]": {"system": "CD8 tumor infiltrating cells", "test": "Flow cytometry / intracellular cytokine staining of tumor infiltrating CD8 T cells in PPSM tumor bearing animals", "format": "in vivo, mouse", "details": "FIGS. 8I-8L", "procedure": "(subcutaneous) injection once every 14 days.\nFlow cytometry. Cells were incubated for 20 min on ice with e506 fixable viability dye and the following antibodies: […] (H57-597), CD4 (RM4-5), CD8 (53-6.7), CD44 (IM7), PD-1 (J43) and Thy1.1 (HIS51). Intracellular proteins Ki67 (SolA15), IFNγ (XMG1.2), TNFα (MP6-CT22), Nur77 (12.14) and Granzyme B (NGZB) were detected using the Fixation/Permeabilization Solution kit from BD Biosciences. All antibodies and viability dyes were purchased from eBioscience, Biolegend, or BD Biosciences. Data were collected with a Fortessa™ flow cytometer (BD Biosciences) and analyzed using FlowJo software (Tree Star). Unless noted otherwise in the figure legend, cells were gated through live/TCRβ+/CD8+ gates for analysis.\nIn vitro activation and intracellular cytokine staining."}}, "data": [{"smiles": "CNC(=O)c1ccc(N2C(=S)N(c3ccc(C#N)c(C(F)(F)F)c3)C(=O)C2(C)C)cc1F", "note": "[enzalutamide, 4-(3-(4-cyano-3-(trifluoromethyl)phenyl)-5,5-dimethyl-4-oxo-2-thioxoimidazolidin-I-yl)-2-fluoro-N-methyl benzamide]", "values": [{"measurement": "cytokine production in tumor specific T cells", "setting": "OTI T cells in the tumor; FIGS. 10A-10C legend", "result": "increased cytokine production"}, {"measurement": "IFNγ production of tumor-antigen specific CD8 T cells", "setting": "OTI T cells in the tumor; female mice, FIG. 10C", "result": "increased"}, {"measurement": "IFNγ production of tumor-antigen specific CD8 T cells", "setting": "OTI T cells in the tumor; male mice, chemically castrated (degarelix), FIG. 10B", "result": "increased"}, {"measurement": "polyfunctionality of tumor-associated CD8 T cells", "setting": "[1]", "result": "insufficient to improve the polyfunctionality"}]}]}
